Values joined by “and” are separate entries in the source; they are usually repeats but may differ in a detail not shown here. Identical values can stand only once. “Also recorded” adds a separate entry of the source. Like-named read-outs stand apart in the source and are kept apart here.
What was measured:
BRDT-BD2 [1] = target: BRDT-BD2
BRDT-BD1 [2] = target: BRDT-BD1
BRDT-BD2 [3] = target: BRDT-BD2 (Homo sapiens, UniProt Q58F21); assay: AlphaScreen competition assay with biotinylated JQ1, BRDT-BD2; format: binding; parameters: BRDT-BD2, NP_001717.3 amino acid 269− 380; made in house; host or cells: E. coli NiCo21 (DE3); details: for BRDT-BD2 activity / affinity: result in words
BRD4-BD2 [4] = target: BRD4-BD2
BRD4-BD1 [5] = target: BRD4-BD1
BRDT-BD1 [6] = target: T1, BRDT-BD1 (Homo sapiens, UniProt Q58F21); assay: AlphaScreen competition assay with biotinylated JQ1, BRDT-BD1; format: binding; details: for inhibition at 10 µM: read-out: Inhibition at 10 µM for BRDT-BD1
T1 construct: NP_001717.3 amino acid 21− 137; made in house; host or cells: E. coli NiCo21 (DE3)

BRD4-BD1 [7] = target: T2, BRD4-BD1 (Homo sapiens, UniProt O60885); assay: AlphaScreen competition assay with biotinylated JQ1, BRD4-BD1; format: binding
T2 construct: amino acid 44− 168; made in house; host or cells: E. coli NiCo21 (DE3)

[8] = Metabolic stability assay in mouse liver microsomes; format: in vitro ADME; details: for half-life at 2 μM / t1/2, min MLM: mouse liver microsomes, 37 °C, data >60 min are an extrapolated estimate, 2.0 μM; for half-life at 2 μM: read-out: t1/2, min MLM; for mouse microsomal stability: result in words
Experimental: (§1) 2d) Metabolic stability assay in liver microsomes. […]
(§2) The reactions are terminated by adding equivalent
(§3) volume of ice-cold CH3OH and vortexed.
(§4) temperature was ma i ntained at 40 °C.
(§5) (acetonitrile containing 0.1% formic acid). […]

[9] = Metabolic stability assay in human liver microsomes; format: in vitro ADME; details: for half-life at 2 μM / t1/2, min HLM: human liver microsomes, 37 °C, data >60 min are an extrapolated estimate, 2.0 μM; for half-life at 2 μM: read-out: t1/2, min HLM
Experimental: as §1, §2, §3, §4, §5

BRD4-BD2 [10] = target: BRD4-BD2 (Homo sapiens, UniProt O60885); assay: AlphaScreen competition assay with biotinylated JQ1, BRD4-BD2; format: binding; parameters: BD2, NP_055114.1 amino acid 333− 460; made in house; host or cells: E. coli NiCo21 (DE3)
[11] = ratio of AlphaScreen IC50 values
[12] = AlphaScreen, biotinylated JQ1 as ligand, NE: no effect at 20 µM
[13] = AlphaScreen, biotinylated JQ1 as ligand

Work on `COc1ccc(NC(=O)c2ccc3c(c2)c(-c2cc4ccccc4n2C)nn3C)cc1OC` yielded an IC50 (BRDT-BD2 [1]) of 101 nM.

`COc1ccc(NC(=O)c2ccc3c(c2)c(-c2ccc(N)cc2C)nn3C)cc1NC(=O)c1ccccc1` gave an IC50 (BRDT-BD2 [1]) of 35 nM.

`Cc1cc(N)ccc1-c1nn(C)c2ccc(C(=O)Nc3ccccc3)cc12` gave an IC50 (BRDT-BD2 [1]) of 90 nM and an IC50 (BRDT-BD1 [2]) greater than 10000 nM.

For `CNC(=O)c1ccc(C(=O)Nc2cc(NC(=O)c3ccc4c(c3)c(-c3cc5ccccc5n3C)nn4C)ccc2OC)cc1` [Compound 3], the IC50 (BRDT-BD2 [1]) was 22 nM and the “BRDT-BD2 activity / affinity” value (BRDT-BD2 [3]; AlphaScreen) was “low nanomolar affinity”.

With `CNC(=O)c1ccc(C(=O)Nc2cc(NC(=O)c3ccc4c(c3)c(-c3cc5ccccc5n3C)nn4C)ccc2C)cc1` [Compound 8] the IC50 (BRDT-BD2 [1]) was 13 nM, the “% inhibition at 10 µM” value (BRDT-BD1 [2]) was 11% and the IC50 (BRDT-BD1 [2]) was greater than 10000 nM. It also gave an IC50 (BRD4-BD2 [4]) of 31 nM, an IC50 (BRD4-BD1 [5]) of 26200 nM and an IC50 (BRDT-BD1 [6]) greater than 10000 nM. It also gave an inhibition at 10 µM (BRDT-BD1 [6]) of 11%, an IC50 (BRD4-BD1 [7]) of 26200 nM and a half-life at 2 μM [8] of 0.85 h. For the same molecule, the half-life at 2 μM [9] was 2.5 h, the IC50 (BRD4-BD2 [10]) was 31 nM and the “BRD4-BD2 vs. BRD4-BD1 (BRD4-BD2 selectivity)” value (BRD4-BD2 [10]; [11]) was 850. For the same molecule, the IC50 (BRDT-BD2 [3]) was 13 nM, the “BRDT-BD2 activity / affinity” value (BRDT-BD2 [3]; AlphaScreen) was “low nanomolar affinity” and the “BRDT-BD2 vs. BRD4-BD2” value (BRDT-BD2 [3]; [11]) was 2.4. The “BRDT-BD2 vs. BRDT-BD1 (BRDT-BD2 selectivity)” value (BRDT-BD2 [3]; [11]) was greater than 750.

With `CNC(=O)c1ccc(C(=O)Nc2cc(NC(=O)c3ccc4c(c3)c(-c3ccc(N)nc3)nn4C)ccc2C)cc1` [Compound 10] the IC50 (BRDT-BD2 [1]) was 17 nM, the “% inhibition at 10 µM” value (BRDT-BD1 [2]) was 16% and the IC50 (BRDT-BD1 [2]) was greater than 10000 nM. The IC50 (BRD4-BD2 [4]) was 46 nM, the “% inhibition at 10 µM” value (BRD4-BD1 [5]) was 20% and the IC50 (BRD4-BD1 [5]) was greater than 10000 nM. The inhibition at 10 µM (BRDT-BD1 [6]) was 16%, the IC50 (BRD4-BD1 [7]) was greater than 10000 nM and the inhibition at 10 µM (BRD4-BD1 [7]; read-out: Inhibition at 10 µM for BRD4-BD1) was 20%. For the same molecule, the half-life at 2 μM [8] was 3.17 h, the mouse microsomal stability [8] was “high metabolic stability; also recorded: high mouse microsomal stability” and the half-life at 2 μM [9] was 4 h. For the same molecule, the human microsomal stability ([9]; result in words) was “high metabolic stability”, the IC50 (BRD4-BD2 [10]) was 46 nM and the “BRD4-BD2 vs. BRD4-BD1 (BRD4-BD2 selectivity)” value (BRD4-BD2 [10]; [11]) was greater than 210. For the same molecule, the IC50 (BRDT-BD2 [3]) was 17 nM, the “BRDT-BD2 activity / affinity” value (BRDT-BD2 [3]; AlphaScreen) was “slightly lower affinity than CDD-1102” and the “BRDT-BD2 vs. BRD4-BD2” value (BRDT-BD2 [3]; [11]) was 2.7. The “BRDT-BD2 vs. BRDT-BD1 (BRDT-BD2 selectivity)” value (BRDT-BD2 [3]; [11]) was greater than 600.

With `CNC(=O)c1ccc(C(=O)Nc2cc(NC(=O)c3ccc4c(c3)c(-c3ccncc3)nn4C)ccc2C)cc1` [Compound 12] the IC50 (BRDT-BD2 [1]) was 978 nM and the “BRDT-BD2 activity / affinity” value (BRDT-BD2 [3]; AlphaScreen) was “weaker-binding”.

With `CNC(=O)c1ccc(C(=O)Nc2cc(NC(=O)c3ccc4c(c3)c(-c3cnc(N)nc3)nn4C)ccc2C)cc1` [Compound 13] the IC50 (BRDT-BD2 [1]) was 139 nM, the IC50 (BRDT-BD1 [2]) was greater than 10000 nM and the “BRDT-BD2 activity / affinity” value (BRDT-BD2 [3]; AlphaScreen) was “lower affinity than compound 10”.

In the case of `CNC(=O)c1ccc(C(=O)Nc2cc(NC(=O)c3ccc4c(c3)c(-c3ccc(N)nc3C)nn4C)ccc2C)cc1` [Compound 14], the IC50 (BRDT-BD2 [1]) is reported as 94 nM and the “BRDT-BD2 activity / affinity” value (BRDT-BD2 [3]; AlphaScreen) is reported as “lower affinity than compound 10”.

In the case of `CNC(=O)c1ccc(C(=O)Nc2cc(NC(=O)c3ccc4c(c3)c(-c3cnc(N)cc3C)nn4C)ccc2C)cc1` [Compound 15], the IC50 (BRDT-BD2 [1]) is reported as 22 nM, the IC50 (BRD4-BD2 [4]) is reported as 140 nM and the IC50 (BRDT-BD1 [6]; [12]) is reported as greater than 20000 nM. The IC50 (BRD4-BD1 [7]; [12]) was greater than 20000 nM, the “t1/2, min MLM” value [8] was 2.5 h and the mouse microsomal stability [8] was “high mouse microsomal stability”. For the same molecule, the “t1/2, min HLM” value [9] was 3.67 h, the “BRD4-BD2 vs. BRD4-BD1 (BRD4-BD2 selectivity)” value (BRD4-BD2 [10]) was greater than 140 and the IC50 (BRD4-BD2 [10]; [13]) was 140 nM. For the same molecule, the IC50 (BRDT-BD2 [3]; [13]) was 22 nM, the “BRDT-BD2 activity / affinity” value (BRDT-BD2 [3]; AlphaScreen) was “lower affinity than compound 10” and the “BRDT-BD2 vs. BRD4-BD2” value (BRDT-BD2 [3]; ratio of AlphaScreen IC50 values, listed as 15 (CDD-1349)) was 6.4. The “BRDT-BD2 vs. BRD4-BD2” value (BRDT-BD2 [3]; ratio of AlphaScreen IC50 values, listed as CDD-1349) was “sixfold”.

With `CC(=O)Nc1cc(NC(=O)c2ccc3c(c2)c(-c2ccc(N)nc2)nn3C)ccc1C` [Compound 17] the IC50 (BRDT-BD2 [1]) was 47 nM, the IC50 (BRDT-BD1 [2]) was > 10000 nM and 36200 nM and the IC50 (BRD4-BD2 [4]) was 51 nM. The IC50 (BRD4-BD1 [5]) was 25100 nM, the IC50 (BRDT-BD1 [6]; [12]) was 36200 nM and the IC50 (BRD4-BD1 [7]; [12]) was 25100 nM. For the same molecule, the “t1/2, min MLM” value [8] was 3.33 h, the mouse microsomal stability [8] was “high mouse microsomal stability” and the “t1/2, min HLM” value [9] was 8.17 h. For the same molecule, the “BRD4-BD2 vs. BRD4-BD1 (BRD4-BD2 selectivity)” value (BRD4-BD2 [10]) was 490, the IC50 (BRD4-BD2 [10]; [13]) was 51 nM and the “BRDT-BD2 vs. BRDT-BD1 (BRDT-BD2 selectivity)” value (BRDT-BD2 [3]) was 770. The IC50 (BRDT-BD2 [3]; [13]) was 47 nM and the “BRDT-BD2 vs. BRD4-BD2” value (BRDT-BD2 [3]; [11]) was 1.1.

For `CC(=O)Nc1cccc(NC(=O)c2ccc3c(c2)c(-c2ccc(N)cc2C)nn3C)c1` [Compound 21], the IC50 (BRDT-BD2 [1]) was 14 nM, the IC50 (BRDT-BD1 [2]) was > 10000 nM and 19700 nM and the IC50 (BRD4-BD2 [4]) was 21 nM. The IC50 (BRD4-BD1 [5]) was 14100 nM, the IC50 (BRDT-BD1 [6]; [12]) was 19700 nM and the IC50 (BRD4-BD1 [7]; [12]) was 14100 nM. For the same molecule, the “t1/2, min MLM” value [8] was 0.15 h, the “t1/2, min HLM” value [9] was 3 h and the “BRD4-BD2 vs. BRD4-BD1 (BRD4-BD2 selectivity)” value (BRD4-BD2 [10]) was 670. The IC50 (BRD4-BD2 [10]; [13]) was 21 nM, the “BRDT-BD2 vs. BRDT-BD1 (BRDT-BD2 selectivity)” value (BRDT-BD2 [3]) was 1,400 and the IC50 (BRDT-BD2 [3]; [13]) was 14 nM. For the same molecule, the “BRDT-BD2 activity / affinity” value (BRDT-BD2 [3]; AlphaScreen) was “minimal effects on potency” and the “BRDT-BD2 vs. BRD4-BD2” value (BRDT-BD2 [3]; [11]) was 1.5.

In the case of `CNC(=O)c1cc(NC(=O)c2ccc3c(c2)c(-c2ccc(N)cc2C)nn3C)ccc1C` [Compound 22], the IC50 (BRDT-BD2 [1]) is reported as 18 nM, the IC50 (BRDT-BD1 [2]) is reported as > 10000 nM and 10700 nM and the IC50 (BRD4-BD2 [4]) is reported as 20 nM. The IC50 (BRD4-BD1 [5]) was 10900 nM, the IC50 (BRDT-BD1 [6]) was 10700 nM and the IC50 (BRD4-BD1 [7]) was 10900 nM. The half-life at 2 μM [8] was 2.5 h, the mouse microsomal stability [8] was “high mouse microsomal stability” and the half-life at 2 μM [9] was 7.67 h. For the same molecule, the IC50 (BRD4-BD2 [10]) was 20 nM, the “BRD4-BD2 vs. BRD4-BD1 (BRD4-BD2 selectivity)” value (BRD4-BD2 [10]; [11]) was 540 and the IC50 (BRDT-BD2 [3]) was 18 nM. The “BRDT-BD2 activity / affinity” value (BRDT-BD2 [3]; AlphaScreen) was “minimal effects on potency”, the “BRDT-BD2 vs. BRD4-BD2” value (BRDT-BD2 [3]; [11]) was 1.1 and the “BRDT-BD2 vs. BRDT-BD1 (BRDT-BD2 selectivity)” value (BRDT-BD2 [3]; [11]) was 590.

In the case of `COc1ccc(NC(=O)c2ccc3c(c2)c(-c2ccc(N)cc2C)nn3C)cc1` [Compound 24], the IC50 (BRDT-BD2 [1]) is reported as 54 nM and the “BRDT-BD2 activity / affinity” value (BRDT-BD2 [3]; AlphaScreen) is reported as “dramatic loss of activity”.

For `COc1ccc(N(C)C(=O)c2ccc3c(c2)c(-c2ccc(N)cc2C)nn3C)cc1` [Compound 26], the IC50 (BRDT-BD2 [1]) was greater than 1000 nM, the IC50 (BRDT-BD1 [2]) was greater than 10000 nM and the “BRDT-BD2 activity / affinity” value (BRDT-BD2 [3]; AlphaScreen) was “loss of potency”.

For `COc1ccc(NC(=O)c2ccc3nn(C)c(-c4ccc(N)cc4C)c3c2)cc1` [Compound 27], the IC50 (BRDT-BD2 [1]) was 17200 nM, the IC50 (BRDT-BD1 [2]) was greater than 10000 nM and the “BRDT-BD2 activity / affinity” value (BRDT-BD2 [3]; AlphaScreen) was “dramatic loss of activity; also recorded: inactivity”.

Source: PMC7936271, “Discovery and characterization of bromodomain 2–specific inhibitors of BRDT” (Proceedings of the National Academy of Sciences of the …, 2021)
